Test results taken from ChEMBL document CHEMBL1201862, “PubChem BioAssay data set” (2004).
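Briefly, cells in 96-well plates were exposed to five compound concentrations for 48 h, and endpoints were estimated by linear interpolation. GI50 = concentration required for 50% inhibition of growth.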 The source made the active and inactive calls. No stated cut-off is given here; in the data, active = GI50 up to about 1.1 µM and inactive = higher. Square brackets hold non-standard residues; d marks the D form. Peptide text beside a SMILES is read from it. * marks the point of attachment. Boc = CC(C)(C)OC(=O)*; OBn = c1ccc(CO*)cc1

How the values were obtained:
Experiment in all cases: DTP human tumour cell line panel, 48 h
UACC-257 = tested on: UACC-257
KM12 = tested on: KM12
SK-OV-3 = tested on: SK-OV-3
MCF7 = tested on: MCF7
OVCAR-4 = tested on: OVCAR-4
TK-10 = tested on: TK-10
MDA-MB-435 = tested on: MDA-MB-435
SNB-19 = tested on: SNB-19
SNB-75 = tested on: SNB-75
DU-145 = tested on: DU-145
UACC-62 = tested on: UACC-62
EKVX = tested on: EKVX
786-0 = tested on: 786-0
T47D = tested on: T47D
M14 = tested on: M14
NCI-H522 = tested on: NCI-H522
SN12C = tested on: SN12C
OVCAR-5 = tested on: OVCAR-5
K562 = tested on: K562
HCT-15 = tested on: HCT-15
SW-620 = tested on: SW-620
SF-268 = tested on: SF-268
HCC 2998 = tested on: HCC 2998
NCI-H460 = tested on: NCI-H460
HOP-62 = tested on: HOP-62
Hs-578T = tested on: Hs-578T
NCI/ADR-RES = tested on: NCI/ADR-RES
IGROV-1 = tested on: IGROV-1
COLO 205 = tested on: COLO 205
NCI-H23 = tested on: NCI-H23
OVCAR-3 = tested on: OVCAR-3
MDA-N = tested on: MDA-N
CCRF-CEM = tested on: CCRF-CEM
SK-MEL-28 = tested on: SK-MEL-28
SK-MEL-5 = tested on: SK-MEL-5
A549 = tested on: A549
U-251 = tested on: U-251
HT-29 = tested on: HT-29
PC-3 = tested on: PC-3
SR = tested on: SR
OVCAR-8 = tested on: OVCAR-8
LOX IMVI = tested on: LOX IMVI
NCI-H226 = tested on: NCI-H226
UO-31 = tested on: UO-31
SF-295 = tested on: SF-295
HCT-116 = tested on: HCT-116
MOLT-4 = tested on: MOLT-4
HOP-92 = tested on: HOP-92
MDA-MB-231 = tested on: MDA-MB-231
BT-549 = tested on: BT-549
ACHN = tested on: ACHN
CAKI-1 = tested on: CAKI-1
SF-539 = tested on: SF-539
RXF 393 = tested on: RXF 393
HL-60 = tested on: HL-60
SK-MEL-2 = tested on: SK-MEL-2
Malme-3M = tested on: Malme-3M

## C(#Cc1ccccc1)SC1=C(c2ccccc2)S/C(=C(\SC#Cc2ccccc2)c2ccccc2)S1
UACC-257
  GI50: > 100 µM (inactive)
KM12
  GI50: > 100 µM (inactive)
SK-OV-3
  GI50: > 100 µM (inactive)
MCF7
  GI50: > 100 µM (inactive)
OVCAR-4
  GI50: > 100 µM (inactive)
TK-10
  GI50: > 100 µM (inactive)
MDA-MB-435
  GI50: > 100 µM (inactive)
SNB-19
  GI50: > 100 µM (inactive)
SNB-75
  GI50: > 100 µM (inactive)
DU-145
  GI50: > 100 µM (inactive)
UACC-62
  GI50: > 100 µM (inactive)
EKVX
  GI50: > 100 µM (inactive)
786-0
  GI50: > 100 µM (inactive)
T47D
  GI50: > 100 µM (inactive)
M14
  GI50: > 100 µM (inactive)
NCI-H522
  GI50: > 100 µM (inactive)
SN12C
  GI50: > 100 µM (inactive)
OVCAR-5
  GI50: > 100 µM (inactive)
K562
  GI50: > 100 µM (inactive)
HCT-15
  GI50: > 100 µM
SW-620
  GI50: > 100 µM (inactive)
SF-268
  GI50: > 100 µM (inactive)
HCC 2998
  GI50: > 100 µM (inactive)
NCI-H460
  GI50: > 100 µM (inactive)
HOP-62
  GI50: > 100 µM (inactive)
Hs-578T
  GI50: > 100 µM (inactive)
NCI/ADR-RES
  GI50: > 100 µM (inactive)
IGROV-1
  GI50: > 100 µM (inactive)
COLO 205
  GI50: > 100 µM (inactive)
NCI-H23
  GI50: > 100 µM (inactive)
OVCAR-3
  GI50: > 100 µM (inactive)
MDA-N
  GI50: > 100 µM (inactive)
CCRF-CEM
  GI50: > 100 µM (inactive)
SK-MEL-28
  GI50: > 100 µM (inactive)
SK-MEL-5
  GI50: > 100 µM (inactive)
A549
  GI50: > 100 µM (inactive)
U-251
  GI50: > 100 µM (inactive)
HT-29
  GI50: > 100 µM (inactive)
PC-3
  GI50: > 100 µM (inactive)
SR
  GI50: > 100 µM (inactive)
OVCAR-8
  GI50: > 100 µM (inactive)
LOX IMVI
  GI50: > 100 µM (inactive)
NCI-H226
  GI50: > 100 µM (inactive)
UO-31
  GI50: > 100 µM (inactive)
SF-295
  GI50: > 100 µM (inactive)
HCT-116
  GI50: > 100 µM (inactive)
MOLT-4
  GI50: > 100 µM (inactive)
HOP-92
  GI50: > 100 µM (inactive)
MDA-MB-231
  GI50: > 100 µM (inactive)
BT-549
  GI50: > 100 µM (inactive)
ACHN
  GI50: > 100 µM (inactive)
CAKI-1
  GI50: > 100 µM (inactive)
SF-539
  GI50: > 100 µM (inactive)

## C=CCC1(c2ccc(OC)cc2)C=CC(=O)CC1 (stereo unspecified)
UACC-257
  GI50: > 100 µM (inactive)
KM12
  GI50: > 100 µM (inactive)
SK-OV-3
  GI50: > 100 µM (inactive)
MCF7
  GI50: > 100 µM (inactive)
OVCAR-4
  GI50: > 100 µM (inactive)
TK-10
  GI50: > 100 µM (inactive)
MDA-MB-435
  GI50: 66.4 µM (inactive)
SNB-19
  GI50: > 100 µM (inactive)
SNB-75
  GI50: 19.4 µM (inactive)
DU-145
  GI50: > 100 µM (inactive)
UACC-62
  GI50: 68.7 µM (inactive)
EKVX
  GI50: > 100 µM (inactive)
RXF 393
  GI50: 94 µM (inactive)
786-0
  GI50: > 100 µM (inactive)
T47D
  GI50: > 100 µM (inactive)
M14
  GI50: > 100 µM (inactive)
NCI-H522
  GI50: 77.1 µM (inactive)
SN12C
  GI50: > 100 µM (inactive)
OVCAR-5
  GI50: > 100 µM (inactive)
K562
  GI50: 40.2 µM (inactive)
HCT-15
  GI50: 72.3 µM
SW-620
  GI50: > 100 µM (inactive)
SF-268
  GI50: > 100 µM (inactive)
HCC 2998
  GI50: > 100 µM (inactive)
NCI-H460
  GI50: > 100 µM (inactive)
HOP-62
  GI50: > 100 µM (inactive)
Hs-578T
  GI50: 28.5 µM (inactive)
NCI/ADR-RES
  GI50: 33.2 µM (inactive)
IGROV-1
  GI50: > 100 µM (inactive)
COLO 205
  GI50: > 100 µM (inactive)
NCI-H23
  GI50: > 100 µM (inactive)
OVCAR-3
  GI50: > 100 µM (inactive)
MDA-N
  GI50: 65.8 µM (inactive)
CCRF-CEM
  GI50: 24.3 µM (inactive)
HL-60
  GI50: 38.9 µM (inactive)
SK-MEL-28
  GI50: > 100 µM (inactive)
SK-MEL-5
  GI50: > 100 µM (inactive)
A549
  GI50: > 100 µM (inactive)
U-251
  GI50: 52.4 µM (inactive)
HT-29
  GI50: > 100 µM (inactive)
PC-3
  GI50: 77.3 µM (inactive)
SR
  GI50: 44.3 µM (inactive)
OVCAR-8
  GI50: > 100 µM (inactive)
LOX IMVI
  GI50: > 100 µM (inactive)
NCI-H226
  GI50: > 100 µM (inactive)
UO-31
  GI50: > 100 µM (inactive)
SF-295
  GI50: > 100 µM (inactive)
HCT-116
  GI50: > 100 µM (inactive)
MOLT-4
  GI50: 28.6 µM (inactive)
HOP-92
  GI50: 44.9 µM (inactive)
MDA-MB-231
  GI50: 92.7 µM (inactive)
BT-549
  GI50: 70.6 µM (inactive)
ACHN
  GI50: > 100 µM (inactive)
CAKI-1
  GI50: > 100 µM (inactive)
SF-539
  GI50: > 100 µM (inactive)

## C[C@@H](NC(=O)CNC(=O)OC(C)(C)C)C(=O)N[C@@H](Cc1ccccc1)C(=O)OCc1ccccc1 (Boc-Gly-[dA]-Phe-OBn)
UACC-257
  GI50: 33.7 µM (inactive)
KM12
  GI50: > 100 µM (inactive)
SK-OV-3
  GI50: > 100 µM (inactive)
MCF7
  GI50: > 100 µM (inactive)
OVCAR-4
  GI50: > 100 µM (inactive)
TK-10
  GI50: > 100 µM (inactive)
MDA-MB-435
  GI50: 32.4 µM (inactive)
SK-MEL-2
  GI50: 26.7 µM (inactive)
SNB-19
  GI50: > 100 µM (inactive)
SNB-75
  GI50: 43.9 µM (inactive)
DU-145
  GI50: > 100 µM (inactive)
UACC-62
  GI50: 34 µM (inactive)
EKVX
  GI50: 97.7 µM (inactive)
RXF 393
  GI50: 32 µM (inactive)
786-0
  GI50: 84.7 µM (inactive)
T47D
  GI50: 63.4 µM (inactive)
M14
  GI50: 19.8 µM (inactive)
NCI-H522
  GI50: 26.3 µM (inactive)
SN12C
  GI50: > 100 µM (inactive)
OVCAR-5
  GI50: > 100 µM (inactive)
K562
  GI50: 23.1 µM (inactive)
HCT-15
  GI50: > 100 µM
SW-620
  GI50: 61.7 µM (inactive)
SF-268
  GI50: 89.1 µM (inactive)
Hs-578T
  GI50: 22.3 µM (inactive)
NCI/ADR-RES
  GI50: > 100 µM (inactive)
IGROV-1
  GI50: 67.9 µM (inactive)
COLO 205
  GI50: 18.2 µM (inactive)
NCI-H23
  GI50: > 100 µM (inactive)
MDA-N
  GI50: 36.7 µM (inactive)
CCRF-CEM
  GI50: 19.5 µM (inactive)
Malme-3M
  GI50: 16.2 µM (inactive)
HL-60
  GI50: 35.1 µM (inactive)
SK-MEL-28
  GI50: 20.1 µM (inactive)
SK-MEL-5
  GI50: 22.8 µM (inactive)
A549
  GI50: > 100 µM (inactive)
U-251
  GI50: 71.8 µM (inactive)
HT-29
  GI50: 90.4 µM (inactive)
PC-3
  GI50: 49 µM (inactive)
SR
  GI50: 19.5 µM (inactive)
OVCAR-8
  GI50: > 100 µM (inactive)
LOX IMVI
  GI50: 20.6 µM (inactive)
NCI-H226
  GI50: 51.1 µM (inactive)
UO-31
  GI50: 51.2 µM (inactive)
SF-295
  GI50: > 100 µM (inactive)
HCT-116
  GI50: 47.3 µM (inactive)
MOLT-4
  GI50: 15 µM (inactive)
HOP-92
  GI50: 17.8 µM (inactive)
MDA-MB-231
  GI50: 37.1 µM (inactive)
BT-549
  GI50: > 100 µM (inactive)
ACHN
  GI50: 57.9 µM (inactive)
CAKI-1
  GI50: > 100 µM (inactive)
SF-539
  GI50: > 100 µM (inactive)
